Assay results: ChEMBL document CHEMBL1158676, “Aurilol, a Cytotoxic Bromotriterpene Isolated from the Sea Hare Dolabella auricularia” (J Nat Prod, 1998)
Values after ≈ are worked out from the molar mass of the structure shown.

Experiment: Cytotoxicity against human HeLaS3 cells
Assay type: functional, cell-based
Conditions: HeLa S3

CC(C)(O)[C@H](O)CC[C@@](C)(O)[C@@H]1CC[C@](C)([C@@H]2CC[C@@H]([C@@]3(C)CC[C@@H]4OC(C)(C)[C@H](Br)CC[C@@]4(C)O3)O2)O1 [AURILOL]
IC50: 4.3 µg/mL (≈ 7.1 µM)
